In the supplement of paper PMC10307832:

Columns and labels:
Experiment in all cases: relative viability (nuclei count vs DMSO), 5 days (fraction); higher = more cells survive
NCI-H1792 = system: NCI-H1792
Method in brief: (§1)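 Relative viability was taken as the ratio of nuclei in treated wells to nuclei in vehicle wells. Lung cancer cell lines in 1536-well plates received compounds by pin tool one day after seeding, either one drug alone or a fixed anchor-drug dose plus five library-drug doses (not always all listed) in √10 steps. Nuclei were counted on 4× images after 5 days of treatment, and values are medians of duplicate plates.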

NCI-H2085 = system: NCI-H2085
Method in brief: as §1

LU99A = system: LU99A
Method in brief: as §1

SK-LU-1 = system: SK-LU-1
Method in brief: as §1

LC-2-ad = system: LC-2-ad
Method in brief: as §1

NCI-H2170 = system: NCI-H2170
Method in brief: as §1

SW 900 = system: SW 900
Method in brief: as §1

UMC-11 = system: UMC-11
Method in brief: as §1

HCC-78 = system: HCC-78
Method in brief: as §1

NCI-H1975 = system: NCI-H1975
Method in brief: as §1

LCLC-97TM1 = system: LCLC-97TM1
Method in brief: as §1

NCI-H1915 = system: NCI-H1915
Method in brief: as §1

EPLC-272H = system: EPLC-272H
Method in brief: as §1

HCC-366 = system: HCC-366
Method in brief: as §1

COR-L 105 = system: COR-L 105
Method in brief: as §1

A-427 = system: A-427
Method in brief: as §1

NCI-H1944 = system: NCI-H1944
Method in brief: as §1

NCI-H1793 = system: NCI-H1793
Method in brief: as §1

NCI-H358 = system: NCI-H358
Method in brief: as §1

HOP-62 = system: HOP-62
Method in brief: as §1

LXF-289 = system: LXF-289
Method in brief: as §1

NCI-H460 = system: NCI-H460
Method in brief: as §1

NCI-H1755 = system: NCI-H1755
Method in brief: as §1

CC1(C)CCC(c2ccc(Cl)cc2)=C(CN2CCN(c3ccc(C(=O)NS(=O)(=O)c4ccc(N[C@H](CCN5CCOCC5)CSc5ccccc5)c(S(=O)(=O)C(F)(F)F)c4)cc3)CC2)C1 [Navitoclax] + Nc1ncn([C@H]2C[C@H](O)[C@@H](CO)O2)c(=O)n1 [Decitabine] (partner 2 µM)
relative viability (NCI-H1792; first compound 0.005 µM): 0.488 | relative viability (NCI-H1792; first compound 0.01581 µM): 0.644 | relative viability (NCI-H1792; first compound 0.1581 µM): 0.525 | relative viability (NCI-H1792; first compound 0.5 µM): 0.447 | relative viability (NCI-H2085; first compound 0.005 µM): 0.612 | relative viability (NCI-H2085; first compound 0.01581 µM): 0.695 | relative viability (NCI-H2085; first compound 0.05 µM): 0.474 | relative viability (NCI-H2085; first compound 0.1581 µM): 0.579 | relative viability (NCI-H2085; first compound 0.5 µM): 0.562 | relative viability (LU99A; first compound 0.005 µM): 0.876 | relative viability (LU99A; first compound 0.01581 µM): 0.977 | relative viability (LU99A; first compound 0.1581 µM): 0.921 | relative viability (LU99A; first compound 0.5 µM): 0.989 | relative viability (SK-LU-1; first compound 0.005 µM): 0.577 | relative viability (SK-LU-1; first compound 0.01581 µM): 0.577 | relative viability (SK-LU-1; first compound 0.05 µM): 0.389 | relative viability (SK-LU-1; first compound 0.1581 µM): 0.609 | relative viability (SK-LU-1; first compound 0.5 µM): 0.469 | relative viability (LC-2-ad; first compound 0.005 µM): 0.793 | relative viability (LC-2-ad; first compound 0.01581 µM): 0.72 | relative viability (LC-2-ad; first compound 0.05 µM): 0.673 | relative viability (LC-2-ad; first compound 0.1581 µM): 0.701 | relative viability (LC-2-ad; first compound 0.5 µM): 0.774 | relative viability (NCI-H2170; first compound 0.005 µM): 0.473 | relative viability (NCI-H2170; first compound 0.01581 µM): 0.484 | relative viability (NCI-H2170; first compound 0.05 µM): 0.475 | relative viability (NCI-H2170; first compound 0.1581 µM): 0.414 | relative viability (NCI-H2170; first compound 0.5 µM): 0.434 | relative viability (SW 900; first compound 0.005 µM): 0.406 | relative viability (SW 900; first compound 0.01581 µM): 0.412 | relative viability (SW 900; first compound 0.1581 µM): 0.445 | relative viability (SW 900; first compound 0.5 µM): 0.262 | relative viability (UMC-11; first compound 0.005 µM): 0.707 | relative viability (UMC-11; first compound 0.01581 µM): 0.635 | relative viability (UMC-11; first compound 0.05 µM): 0.616 | relative viability (UMC-11; first compound 0.1581 µM): 0.547 | relative viability (UMC-11; first compound 0.5 µM): 0.609 | relative viability (HCC-78; first compound 0.005 µM): 0.759 | relative viability (HCC-78; first compound 0.01581 µM): 0.732 | relative viability (HCC-78; first compound 0.05 µM): 0.605 | relative viability (HCC-78; first compound 0.1581 µM): 0.636 | relative viability (HCC-78; first compound 0.5 µM): 0.798 | relative viability (NCI-H1975; first compound 0.005 µM): 0.432 | relative viability (NCI-H1975; first compound 0.01581 µM): 0.392 | relative viability (NCI-H1975; first compound 0.05 µM): 0.261 | relative viability (NCI-H1975; first compound 0.1581 µM): 0.416 | relative viability (NCI-H1975; first compound 0.5 µM): 0.29 | relative viability (LCLC-97TM1; first compound 0.005 µM): 0.229 | relative viability (LCLC-97TM1; first compound 0.01581 µM): 0.268 | relative viability (LCLC-97TM1; first compound 0.05 µM): 0.224 | relative viability (LCLC-97TM1; first compound 0.1581 µM): 0.217 | relative viability (LCLC-97TM1; first compound 0.5 µM): 0.271 | relative viability (NCI-H1915; first compound 0.005 µM): 0.263 | relative viability (NCI-H1915; first compound 0.01581 µM): 0.242 | relative viability (NCI-H1915; first compound 0.05 µM): 0.274 | relative viability (NCI-H1915; first compound 0.1581 µM): 0.247 | relative viability (NCI-H1915; first compound 0.5 µM): 0.25 | relative viability (EPLC-272H; first compound 0.005 µM): 0.346 | relative viability (EPLC-272H; first compound 0.05 µM): 0.377 | relative viability (EPLC-272H; first compound 0.1581 µM): 0.302 | relative viability (EPLC-272H; first compound 0.5 µM): 0.38 | relative viability (HCC-366; first compound 0.005 µM): 0.34 | relative viability (HCC-366; first compound 0.01581 µM): 0.4 | relative viability (HCC-366; first compound 0.1581 µM): 0.332 | relative viability (HCC-366; first compound 0.5 µM): 0.365 | relative viability (COR-L 105; first compound 0.005 µM): 0.737 | relative viability (COR-L 105; first compound 0.01581 µM): 0.89 | relative viability (COR-L 105; first compound 0.05 µM): 0.6 | relative viability (COR-L 105; first compound 0.1581 µM): 0.662 | relative viability (COR-L 105; first compound 0.5 µM): 0.537 | relative viability (A-427; first compound 0.005 µM): 0.607 | relative viability (A-427; first compound 0.01581 µM): 0.534 | relative viability (A-427; first compound 0.05 µM): 0.517 | relative viability (A-427; first compound 0.1581 µM): 0.521 | relative viability (A-427; first compound 0.5 µM): 0.466 | relative viability (NCI-H1944; first compound 0.005 µM): 0.466 | relative viability (NCI-H1944; first compound 0.01581 µM): 0.455 | relative viability (NCI-H1944; first compound 0.1581 µM): 0.384 | relative viability (NCI-H1944; first compound 0.5 µM): 0.396 | relative viability (NCI-H1793; first compound 0.005 µM): 0.448 | relative viability (NCI-H1793; first compound 0.01581 µM): 0.595 | relative viability (NCI-H1793; first compound 0.1581 µM): 0.49 | relative viability (NCI-H1793; first compound 0.5 µM): 0.345 | relative viability (NCI-H358; first compound 0.005 µM): 0.234 | relative viability (NCI-H358; first compound 0.01581 µM): 0.225 | relative viability (NCI-H358; first compound 0.05 µM): 0.206 | relative viability (NCI-H358; first compound 0.1581 µM): 0.213 | relative viability (NCI-H358; first compound 0.5 µM): 0.187 | relative viability (HOP-62; first compound 0.005 µM): 0.22 | relative viability (HOP-62; first compound 0.01581 µM): 0.21 | relative viability (HOP-62; first compound 0.05 µM): 0.173 | relative viability (HOP-62; first compound 0.1581 µM): 0.191 | relative viability (HOP-62; first compound 0.5 µM): 0.205 | relative viability (LXF-289; first compound 0.005 µM): 0.347 | relative viability (LXF-289; first compound 0.01581 µM): 0.389 | relative viability (LXF-289; first compound 0.05 µM): 0.349 | relative viability (LXF-289; first compound 0.1581 µM): 0.349 | relative viability (LXF-289; first compound 0.5 µM): 0.428 | relative viability (NCI-H460; first compound 0.005 µM): 0.481 | relative viability (NCI-H460; first compound 0.01581 µM): 0.523 | relative viability (NCI-H460; first compound 0.05 µM): 0.234 | relative viability (NCI-H460; first compound 0.1581 µM): 0.411 | relative viability (NCI-H460; first compound 0.5 µM): 0.444 | relative viability (NCI-H1755; first compound 0.005 µM): 0.664 | relative viability (NCI-H1755; first compound 0.01581 µM): 0.727 | relative viability (NCI-H1755; first compound 0.05 µM): 0.611 | relative viability (NCI-H1755; first compound 0.1581 µM): 0.677 | relative viability (NCI-H1755; first compound 0.5 µM): 0.697
